From patent publication US10080752B2, “Treatment of brain and central nervous system tumors” (KADMON CORPORATION LLC, priority 2014, dated 2018)

What was measured:
[1] = Penetration of the blood-brain barrier by quantitative whole body autoradiography; assay type: in vivo, Lister Hooded partially pigmented male rats; conditions: rats
Description: The compound of Formula 1 was tested to determine bio-distribution in tissues of the brain and CNS.
Lister Hooded partially pigmented male rats (N=1 rat per time point) received a single dose of the compound of Formula 1 at 30 mg/kg body weight (^14C labeled, 3.7 MBq/kg body weight) via oral gavage. Animals were not fasted prior to dosing.
Six rats (age 8-10 weeks old) were administered a single oral dose of [^14C]-labeled Formula 1; total dose of 30 mg/kg and a total radioactivity dose of 3.7 MBq/kg (100 μCi/kg). One rat/time point was euthanized by CO2 overdose at each of the following times after dose administration: 1, 6, 24, 72, 120 and 168 hours, followed by immediate snap freezing in hexane/solid CO2, subsequent freezing at −20° C., followed by whole-body autoradiography.

[2] = tested on: GL261-luc2 luciferase expressing cells; experiment: Efficacy alone or in combination with irradiation in an intracranial glioma model in mice; assay type: in vivo, C57BL/6 albino female mice; conditions: 70 mg/kg once daily, 5 days on/2 days off, oral gavage, FIG. 2
Description: The compound of Formula 1 was tested to determine antitumor effects when tumors are growing in the brain. GL261-luc2 luciferase expressing cells were implanted intracranially (2 mm right lateral and 1 mm anterior from Bregma, 2-3 mm down from burr hole) into C57BL/6 albino female mice (N=14 per treatment group). Beginning 8 days after cell injection, mice received vehicle or the compound of Formula I at 70 mg/kg body weight (once daily, 5 days on/2 days off schedule) via oral gavage, with or without head-only irradiation (once daily for 5 days). Tumor burden in the brain was evaluated utilizing bioluminescence.

[3] = Penetration of the blood-brain barrier: plasma and brain concentrations after a single oral dose; assay type: in vivo, Male CD-1 mice; conditions: mice, single dose 100 mg/kg oral gavage
Description: The compound of Formula I was tested to determine bioavalability in tissues of the brain and CNS.
Male CD-1 mice (N=3/group) received a single dose of lapatinib or the compound of Formula I at 100 mg/kg via oral gavage. Animals were not food fasted prior to dosing. Dose volumes were calculated based on the animals' body weights measured before the study.
Plasma and tissue samples were collected 1, 4, 8 and 24 hours post dose (4 time-points/group, and 3 animals/time-point). Whole blood samples were collected into a Na heparin containing tube. Within 30 minutes of collection, the samples were centrifuged at approximately 3,000×g for 10 minutes at 2 to 8° C. to obtain plasma. The plasma samples were divided into 2 aliquots by transferring into 2 cryogenic vials and stored in a freezer at −75±15° C. prior to analysis. Tissues were collected after the blood was collected. Tissues (brain, liver and kidneys) were washed with ice-cold PBS, and the weight was measured and recorded. Each tissue was transferred into a glass vial and stored in a freezer at −75±15° C. prior to sample analysis.

[4] = comparator in FIG. 1, 100 mg/kg oral gavage in mice; cited from earlier work

| Concentrations of radioactivity in brain compared with blood ([1]; single oral dose 30 mg/kg 14C labeled (3.7 MBq/kg), at 6 and 24 hours after dosing) | Concentration observed in CNS tissue compared with blood ([3]; FIG. 1) | Time for which the CNS tissue concentration remained higher than in blood ([3]; duration of the assay) | Structure (SMILES) | Penetration of the blood brain barrier ([1]; single oral dose 30 mg/kg 14C labeled, whole-body autoradiography) | Growth of glioma tumors in the brain (tumor burden by bioluminescence) ([2]; from 8 days after cell injection, alone) | Anti-tumor effects of irradiation on tumors in the brain (tumor burden by bioluminescence) ([2]; with head-only irradiation once daily for 5 days) | Crossing of the blood brain barrier / concentrations in CNS and brain tissue ([3]; samples 1, 4, 8 and 24 hours post dose, FIG. 1) | Crossing of the blood-brain barrier (comparator, as stated in legend of FIG. 1) [4] |
| --- | --- | --- | --- | --- | --- | --- | --- | --- |
| comparable to that in blood | substantially higher | at least 24 hours | COc1cc2c(Nc3ccc(Cl)c(Cl)c3F)ncnc2cc1OCC1C[C@@H]2CN(C)C[C@@H]2C1 (stereo partly drawn) [Formula 1, N-(3,4-dichloro-2-fluorophenyl)-7-({[(3aR,6aS)-2-methyloctahydrocyclopenta[c]pyrrol-5-yl]methyl}oxy)-6-(methyloxy)quinazolin-4-amine] | good penetration of the blood brain barrier | reduced the growth of glioma tumors in the brain | increased the anti-tumor effects of irradiation on tumors in the brain | crossed the blood brain barrier and attained high concentrations in CNS and brain tissue | – |
| – | – | – | CS(=O)(=O)CCNCc1ccc(-c2ccc3ncnc(Nc4ccc(OCc5cccc(F)c5)c(Cl)c4)c3c2)o1 [lapatinib] | – | – | – | – | does not cross the blood-brain barrier |
